Results on three compounds are retold here after patent US8722849B2, “Polypeptides” (Novo Nordisk A/S, priority 2011, dated 2014).

≈ marks a conversion by molar mass, not a printed value. Read-outs that look alike come from different tables or passages of the source. Starred links: 1 amine or outer side, 2 acyl side, 3 side chain; linkers in the order of their positions; H or OH if unused. Positions of bridges follow the written chain, without caps; N, C: chain ends. Residues, ends and D or L forms follow the SMILES beside them. *: point of attachment. C20 diacid = O=C(O)CCCCCCCCCCCCCCCCCCC(=O)*; γGlu = O=C(O)[C@H](CCC(=O)[*:2])N[*:1]

The target in data set [1] is T1, human calcitonin receptor (Homo sapiens, UniProt P30988).
T1 construct: expressed in transfected cells; host or cells: BHK570
T1 sequence (P30988 25-474): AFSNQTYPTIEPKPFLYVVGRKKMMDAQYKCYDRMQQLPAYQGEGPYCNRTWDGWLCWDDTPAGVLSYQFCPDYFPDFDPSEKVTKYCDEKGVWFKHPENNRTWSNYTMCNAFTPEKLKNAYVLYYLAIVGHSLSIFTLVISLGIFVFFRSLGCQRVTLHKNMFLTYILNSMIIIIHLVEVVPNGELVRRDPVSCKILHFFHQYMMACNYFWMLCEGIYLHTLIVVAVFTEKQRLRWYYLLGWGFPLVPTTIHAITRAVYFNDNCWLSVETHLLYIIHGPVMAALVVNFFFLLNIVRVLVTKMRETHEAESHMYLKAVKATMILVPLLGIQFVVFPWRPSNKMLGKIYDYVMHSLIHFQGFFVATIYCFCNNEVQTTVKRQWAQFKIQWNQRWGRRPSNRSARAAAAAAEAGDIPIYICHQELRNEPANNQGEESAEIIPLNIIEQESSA
The data set can be described thus: Assay (II)a functional CRE-luciferase assay, human calcitonin receptor. It is filed as cell-based. The following applies: Table 7; human calcitonin (CTa) receptor.

Data set [2] is described as follows: Assay (IV) determination of solubility. It is filed as physicochemical. Put shortly:
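Stock ~500 nmol/ml in water; 1:1 with 100 mM buffer, pH 3.0–8.0 (glycylglycine ≤5.0, bistrispropane ≥6.0); 18 h RT; spin; HPLC quantitation of soluble polypeptide.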

A short description of data set [3]: Assay (III) ThT fibrillation assay for physical stability. Format: physicochemical. The following applies: ThT fibrillation assay. Put shortly: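 Freshly prepared formulations, pH-adjusted, with 1 μM ThT; four or eight replicates incubated at 37 °C under 960 rpm orbital shaking. Fluorescence (ex 444/em 485 nm) read every 20 min; […]. Peptide concentration measured by RP-HPLC before and after the run.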

Data set [4] concerns the target T2, human amylin receptor (amylin 3(a) receptor: human calcitonin receptor + RAMP-3) (Homo sapiens, UniProt O60896+P30988).
T2 construct: expressed in transfected cells; host or cells: BHK570
T2 sequence (P30988 25-474): T1 sequence (P30988 25-474)
T2 sequence (O60896 24-148 partner): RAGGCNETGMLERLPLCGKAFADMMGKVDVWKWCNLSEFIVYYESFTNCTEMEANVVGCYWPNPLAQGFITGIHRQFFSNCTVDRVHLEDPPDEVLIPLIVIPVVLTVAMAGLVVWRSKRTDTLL
The data set can be described thus: Assay (II)a functional CRE-luciferase assay, human amylin receptor. Format: cell-based. The following applies: Table 2; BHK amylin 3(a)-receptor/CRE-luc cells.

Where [5] appears, read: bistrispropane buffer, pH 6, pH 6.0, read-out: Solubility pH 6.0.
Setting [6] is: bistrispropane buffer, pH 6.5, pH 6.5, read-out: Solubility pH 6.5.
The mark [7] stands for this setting: bistrispropane buffer, pH 7, pH 7.0, read-out: Solubility pH 7.0.
[8] abbreviates: bistrispropane buffer, pH 7.5, pH 7.5, read-out: Solubility pH 7.5.
Where [9] appears, read: bistrispropane buffer, pH 8, pH 8.0, read-out: Solubility pH 8.0.
The mark [10] stands for this setting: glycylglycine buffer, pH 3, pH 3.0, read-out: Solubility pH 3.0.
Where [11] appears, read: glycylglycine buffer, pH 4, pH 4.0, 18 hours at room temperature, Table 2, read-out: Solubility pH 4.0.
Setting [12] is: glycylglycine buffer, pH 4, pH 4.0, read-out: Solubility pH 4.0.
[13] abbreviates: glycylglycine buffer, pH 5, pH 5.0, read-out: Solubility pH 5.0.

The term EC50 denotes the concentration giving half of the maximal effect. A word on the solubility: it is the dissolved amount per volume that the medium holds.

For the compound `CC[C@H](C)[C@H](NC(=O)[C@@H]1CCCN1C(=O)CNC(=O)[C@H](Cc1ccccc1)NC(=O)[C@H](CC(N)=O)NC(=O)[C@H](CC(N)=O)NC(=O)[C@H](CO)NC(=O)[C@H](CO)NC(=O)[C@H](Cc1c[nH]cn1)NC(=O)[C@H](Cc1c[nH]cn1)NC(=O)[C@H](CC(C)C)NC(=O)[C@H](Cc1ccccc1)NC(=O)[C@H](CCC(=O)O)NC(=O)[C@H](C)NC(=O)[C@H](CC(C)C)NC(=O)[C@H](CCCNC(=N)N)NC(=O)[C@H](CCC(N)=O)NC(=O)[C@@H](NC(=O)[C@H](C)NC(=O)[C@@H]1CSSC[C@H](NC(=O)[C@H](CCCCN)NC(=O)[C@H](Cc2c[nH]cn2)NC(=O)[C@H](Cc2c[nH]cn2)NC(=O)CC[C@H](NC(=O)CCCCCCCCCCCCCCCCCCC(=O)O)C(=O)O)C(=O)N[C@@H](CC(N)=O)C(=O)N[C@@H]([C@@H](C)O)C(=O)N[C@@H](C)C(=O)N[C@@H]([C@@H](C)O)C(=O)N1)[C@@H](C)O)C(=O)N[C@@H](CC(C)C)C(=O)N1CCC[C@H]1C(=O)N1CCC[C@H]1C(=O)N[C@H](C(=O)N[C@@H](CC(N)=O)C(=O)N[C@H](C(=O)NCC(=O)N[C@@H](CO)C(=O)N[C@@H](Cc1c[nH]cn1)C(=O)N[C@H](C(=O)N[C@@H](Cc1ccc(O)cc1)C(N)=O)[C@@H](C)O)C(C)C)[C@@H](C)O` [Example 67, N-alpha-[(S)-4-Carboxy-4-(19-carboxynonadecanoylamino)butyryl]-His-His-[Glu14,His17,His35]-pramlintide] ({C20 diacid-γGlu}-HHKCNTATCATQRLAEFLHHSSNNFGPILPPTNVGSHTY-NH2; disulfide 4-9 (inferred); C-terminus assumed), the concentration for a half-maximal effect (EC50) in data set [1] worked out at 114 pM; in data set [4], 96.5 pM. In addition, the solubility at 18 h in data set [2] (setting [5]) was above 200 µM; in data set [2] (setting [6]) it was 166 µM (≈ 789 µg/mL); in data set [2] (setting [7]), 15 µM (≈ 71.3 µg/mL); in data set [2] (setting [8]) it was 24 µM (≈ 114 µg/mL); in data set [2] (setting [9]), 60 µM (≈ 285 µg/mL); in data set [2] (setting [10]), above 200 µM. For the same compound, the solubility at 18 h in data set [2] (setting [11]), in data set [2] (setting [12]) and in data set [2] (setting [13]) was above 200 µM in each case. Besides, the “ThT pH 4.0 lag time” value in data set [3] was above 45 h. The “ThT pH 4.0 lag time (h)” value in data set [3] was above 45 h.
Take `CC[C@H](C)[C@H](NC(=O)[C@@H]1CCCN1C(=O)CNC(=O)[C@H](Cc1ccccc1)NC(=O)[C@H](CC(N)=O)NC(=O)[C@H](CC(N)=O)NC(=O)[C@H](CO)NC(=O)[C@H](CO)NC(=O)[C@H](Cc1c[nH]cn1)NC(=O)[C@H](CCCNC(=N)N)NC(=O)[C@H](CC(C)C)NC(=O)[C@H](Cc1ccccc1)NC(=O)[C@H](CCC(=O)O)NC(=O)[C@H](C)NC(=O)[C@H](CC(C)C)NC(=O)[C@H](CCCNC(=N)N)NC(=O)[C@H](CCC(N)=O)NC(=O)[C@@H](NC(=O)[C@H](C)NC(=O)[C@@H]1CSSC[C@H](NC(=O)[C@H](CCCCN)NC(=O)[C@H](Cc2c[nH]cn2)NC(=O)CC[C@H](NC(=O)CCCCCCCCCCCCCCCCCCC(=O)O)C(=O)O)C(=O)N[C@@H](CC(N)=O)C(=O)N[C@@H]([C@@H](C)O)C(=O)N[C@@H](C)C(=O)N[C@@H]([C@@H](C)O)C(=O)N1)[C@@H](C)O)C(=O)N[C@@H](CC(C)C)C(=O)N1CCC[C@H]1C(=O)N1CCC[C@H]1C(=O)N[C@H](C(=O)N[C@@H](CC(N)=O)C(=O)N[C@H](C(=O)NCC(=O)N[C@@H](CO)C(=O)N[C@@H](Cc1c[nH]cn1)C(=O)N[C@H](C(=O)N[C@@H](Cc1ccc(O)cc1)C(N)=O)[C@@H](C)O)C(C)C)[C@@H](C)O` [Example 68, N-alpha-[(S)-4-Carboxy-4-(19-carboxynonadecanoylamino)butyryl]-His-[Glu14,Arg17,His35]-pramlintide] ({C20 diacid-γGlu}-HKCNTATCATQRLAEFLRHSSNNFGPILPPTNVGSHTY-NH2; disulfide 3-8 (inferred); C-terminus assumed): the values for the EC50 in data set [1] and in data set [4] were 430 pM and 93.5 pM, respectively. For the same compound, the solubility at 18 h was above 200 µM in data set [2] (setting [5]); 170 µM (≈ 788 µg/mL) in data set [2] (setting [6]); 17 µM (≈ 78.8 µg/mL) in data set [2] (setting [7]); 6 µM (≈ 27.8 µg/mL) in data set [2] (setting [8]); 7 µM (≈ 32.4 µg/mL) in data set [2] (setting [9]); above 200 µM in data set [2] (setting [10]). Further, the solubility at 18 h in data set [2] (setting [11]), in data set [2] (setting [12]) and in data set [2] (setting [13]) was above 200 µM in each case. Further, the “ThT pH 4.0 lag time” value in data set [3] was above 45 h. In addition, the “ThT pH 4.0 lag time (h)” value in data set [3] is above 45 h.
On to `CC[C@H](C)[C@H](NC(=O)[C@@H]1CCCN1C(=O)CNC(=O)[C@H](Cc1ccccc1)NC(=O)[C@H](CC(N)=O)NC(=O)[C@H](CC(N)=O)NC(=O)[C@H](CO)NC(=O)[C@H](CO)NC(=O)[C@H](Cc1c[nH]cn1)NC(=O)[C@H](CCCNC(=N)N)NC(=O)[C@H](CC(C)C)NC(=O)[C@H](Cc1ccccc1)NC(=O)[C@H](CCC(=O)O)NC(=O)[C@H](C)NC(=O)[C@H](CC(C)C)NC(=O)[C@H](CCCNC(=N)N)NC(=O)[C@H](CCC(N)=O)NC(=O)[C@@H](NC(=O)[C@H](C)NC(=O)[C@@H]1CSSC[C@H](NC(=O)[C@H](CCCCN)NC(=O)[C@H](Cc2c[nH]cn2)NC(=O)[C@H](Cc2c[nH]cn2)NC(=O)CC[C@H](NC(=O)CCCCCCCCCCCCCCCCCCC(=O)O)C(=O)O)C(=O)N[C@@H](CC(N)=O)C(=O)N[C@@H]([C@@H](C)O)C(=O)N[C@@H](C)C(=O)N[C@@H]([C@@H](C)O)C(=O)N1)[C@@H](C)O)C(=O)N[C@@H](CC(C)C)C(=O)N1CCC[C@H]1C(=O)N1CCC[C@H]1C(=O)N[C@H](C(=O)N[C@@H](CC(N)=O)C(=O)N[C@H](C(=O)NCC(=O)N[C@@H](CO)C(=O)N[C@@H](Cc1c[nH]cn1)C(=O)N[C@H](C(=O)N[C@@H](Cc1ccc(O)cc1)C(N)=O)[C@@H](C)O)C(C)C)[C@@H](C)O` [Example 69, N-alpha-[(S)-4-Carboxy-4-(19-carboxynonadecanoylamino)butyryl]-His-His-[Glu14,Arg17,His35]-pramlintide] ({C20 diacid-γGlu}-HHKCNTATCATQRLAEFLRHSSNNFGPILPPTNVGSHTY-NH2; disulfide 4-9 (inferred)), for which the EC50 is 614 pM in data set [1] and 101 pM in data set [4]. Further, the solubility at 18 h was above 200 µM in data set [2] (setting [5]); 158 µM (≈ 754 µg/mL) in data set [2] (setting [6]); 6 µM (≈ 28.6 µg/mL) in data set [2] (setting [7]); 2 µM (≈ 9.54 µg/mL) in data set [2] (setting [8]); 24 µM (≈ 115 µg/mL) in data set [2] (setting [9]); above 200 µM in data set [2] (setting [10]). Moreover, the solubility at 18 h in data set [2] (setting [11]), in data set [2] (setting [12]) and in data set [2] (setting [13]) was above 200 µM each time. For the same compound, in data set [3], the “ThT pH 4.0 lag time” value is listed as above 45 h. Further, in data set [3], the “ThT pH 4.0 lag time (h)” value was above 45 h.
